{"source": "patent US9302014B2", "about": "“Cell-penetrating peptides having a central hydrophobic domain” (Medical Research Council, priority 2011, dated 2016)", "key": {"[1]": {"test_system": "dystrophin", "experiment": "Immunohistochemical staining and quantification of dystrophin in mdx mice after single IV injection", "type": "in vivo", "settings": "8 week old mdx mice, single 12.5 mg/kg IV, 2 weeks after injection", "description": "Given the potency of Pip5e-PMO in heart tissue, the aim of altering the sequence of the hydrophobic core (whilst maintaining the 5-aa length) was to identify peptides that might be more efficient at lower doses. These modifications included inversion of the hydrophobic region (Pip6a), substitution of tyrosine by isoleucine (Pip6b), substitution of glutamine in the Pip6a sequence by displacement of the arginine immediately flanking the core in the first arginine-rich flanking region (Pip6e), and a scrambled hydrophobic core sequence (Pip6f). All Pip6 peptide-PMO conjugates were administered to mdx mice as single 12.5 mg/kg intravenous injections via the tail vein and tissues were harvested 2 weeks later and assessed for activity at both RNA and protein levels.\nImmunohistochemical staining quantification (FIGS. 34a, b) was performed as previously described [Malerba, A., et al., Chronic systemic therapy with low-dose morpholino oligomers ameliorates the pathology and normalizes locomotor behavior in mdx mice. Mol Ther, 2011. 19(2): p. 345-54; Arechavala-Gomeza, V., et al., Immunohistological intensity measurements as a tool to assess sarcolemma-associated protein expression. Neuropathol Appl Neurobiol, 2010. 36(4): p. 265-74.] and was achieved by taking 4 representative frames of the dystrophin staining and correlating this with laminin staining for each section (n=3) of the quadriceps, diaphragm and heart for each peptide-PMO treatment. Untreated mdx and treated mdx mice were normalised to C57BL10 mice. This method allows comparison of the staining intensity of dystrophin at the sarcolemma relative to laminin for each treatment group. Intensity ratios are normalised to C57BL10 samples and each region of interest at the sarcolemma (120 regions for each treatment group) is plotted on a scatter graph. […]\nTransverse sections of tissue samples were cut (8 μm thick) for the examination of dystrophin expression. For dystrophin visualisation and quantification, sections were co-stained with rabbit-anti-dystrophin (Abcam) and rat anti-laminin (Sigma), and detected by goat-anti-rabbit IgG Alexa 594 and goat-anti-rat IgG 488 secondary antibodies respectively (Invitrogen). […] Quantitative immunohistochemistry was performed as previously described [Malerba, A., et al., Chronic systemic therapy with low-dose morpholino oligomers ameliorates the pathology and normalizes locomotor behavior in mdx mice. […] For quantification, 4 representative frames of the dystrophin and correlating laminin were taken for each section (n=3) of the quadriceps, diaphragm and heart for each treatment. […] The minimum and maximum fluorescence intensity for 120 regions were recorded for each treatment. […]"}, "[2]": {"test_system": "dystrophin exon 23", "experiment": "Exon skipping in differentiated mouse H2K mdx myotubes (nested RT-PCR, densitometry)", "type": "cell-based", "settings": "no transfection agent", "description": "The exon skipping potential of Pip6-PMO conjugates was evaluated in differentiated mouse H2K mdx myotubes in the absence of any transfection agent (FIG. 1) at concentrations ranging from 0.125 μM to 1 μM. […] In the case of Pip6 sequences, the flanking arginine-rich sequences are identical (with the exception of Pip6e, which is identical except for one arginine immediately preceding the core which is displaced into the second position of the core). […] Note that we have previously shown that major changes in in vitro exon skipping activities are correlated instead with the total numbers of arginine residues [Saleh, A. F., et al., Synthesis and splice-redirecting activity of branched, arginine-rich peptide dendrimer conjugates of peptide nucleic acid oligonucleotides. Bioconjug Chem, 2010. 21(10): p. 1902-11.].\nH2K mdx myotubes are derived from H2K mdx myoblasts obtained from the EDL muscle of a male H2K mdx f2 mouse. The cells are dystrophin deficient and conditionally immortal due to thermolabile simian virus 40 large tumor antigen (tsA58) expression. The myoblasts proliferate at 33° C. (10% CO2) in rich culture and differentiate into myotubes at 37° C. in media with horse serum.\nH2K mdx myotubes were prepared and incubated with peptide-PNA and peptide-PMO conjugates in the absence of any transfection agent by the methods described previously (Wang, Q, Yin, H, et aL (2010) In vitro evaluation of novel antisense oligonucleotides is predictive of in vivo exon skipping activity for Duchenne muscular dystrophy) but with minor variations.\nMyotubes were obtained from confluent H2K mdx cells seeded in gelatine coated 24-well plates following 2 days of serum deprivation (DMEM with 5% horse serum). The conjugates were incubated with myotubes for 4 h in 0.5 mL OptiMEM and then replaced by 1 mL of DMEM/5% horse serum media for further incubation. After 20 h myotubes were washed twice with PBS and total RNA was extracted with 0.5 mL of TRI Reagent (Sigma, UK). RNA preparations were treated with RNAse free DNAse (2U) and Proteinase K ([…]) prior to RT-PCR analysis. RT-PCR was carried out in 25 μL with 1 μg RNA template using SuperScript III One-Step RTPCR System with Platinum Taq DNA polymerase (Invitrogen) primed by forward primer 5′CAG AAT TCT GCC AAT TGC TGAG3′ [SEQ ID NO:312] and reverse primer 5′TTC TTC AGC TTG TGT CAT CC3′ [SEQ ID NO:313]. The initial cDNA synthesis was performed at 55° C. for 30 min followed by 30 cycles of 95° C. for 30 sec, 55° C. for 1 min and 68° C. for 80 sec. RT PCR product ([…]) was then used as the template for secondary PCR performed in 25 μL with 0.5 U Super TAQ polymerase (HT Biotechnologies) and primed by forward primer 5′CCCAGTCTACCACCCTATCAG AGC3′ [SEQ ID NO:314] and reverse primer 5′CCT GCC TTT AAG GCT TCC TT3′ [SEQ ID NO:315]. The cycling conditions were 95° C. for 1 min, 57° C. for 1 min and 72° C. for 80 sec for 25 cycles. Products were examined by 2% agarose gel and after scanning using Gene Tools Analysis Software (SynGene) the relative amount of exon 23 skipping was expressed as a percentage at a given concentration of conjugates averaged over duplicates of three experiments.\nH2K mdx myotubes were prepared and incubated with peptide-PMO conjugates in the absence of any transfection agent at concentrations of 0.125, 0.25, 0.5 and 1.0 μM by the method described previously [Yin, H., et al., Pip5 transduction peptides direct high efficiency oligonucleotide-mediated dystrophin exon skipping in heart and phenotypic correction in mdx mice. Mol Ther, 2011. 19(7): p. 1295-303.]. The products of nested RT-PCR from total isolated RNA were examined by electrophoresis on a 2% agarose gel. Quantification of Δ23 transcript levels was calculated using densitometry. […]"}, "[3]": {"test_system": "dystrophin", "settings": "intramuscular or intravenous delivery in mdx mice; cited from earlier work"}, "[4]": {"settings": "mice; cited from earlier work"}, "[5]": {"settings": "monkeys; cited from earlier work"}, "[6]": {"settings": "Example 5, conjugate 0.125 to 2.0 μM"}}, "note": "Read-outs that look alike come from different tables or passages of the source. Non-standard residues stand in square brackets, D forms with d. No end group written: not given here. Ahx = NCCCCCC(=O)O; βAla = NCCC(=O)O", "data": [{"substance": "Pip8c2: Pip8 series peptide (SEQ ID NOs:17-20) conjugated to PMODMD (R[Ahx]RR[βAla]RYQFLIRR[βAla]R[βAla]; also: conjugated to PMO (PMODMD))", "values": [{"measurement": "dystrophin expression in the heart", "setting": "[1]", "value": "negligible dystrophin production"}, {"measurement": "exon skipping activity (Δ23 skipping) in mdx muscle cells", "setting": "[2]; [6]", "value": "high exon skipping activity"}]}, {"substance": "RXRRBRRXRRBRXB (R[Ahx]RR[βAla]RR[Ahx]RR[βAla]R[Ahx][βAla]; also: conjugated to PMO (PMODMD)) [B peptide]", "values": [{"measurement": "exon skipping and dystrophin production compared to naked PMODMD", "setting": "[3]", "value": "significantly enhance exon skipping and dystrophin production"}]}, {"substance": "Pip8a: Pip8 series peptide (SEQ ID NOs:17-20, parent Pip 6a; 9 Arg) conjugated to PMODMD (R[Ahx]RR[βAla]R[Ahx]RYQFLIR[Ahx]RR[βAla]R[βAla]; also: conjugated to PMO (PMODMD))", "values": [{"measurement": "exon skipping activity (Δ23 skipping) in mdx muscle cells", "setting": "[2]; [6]", "value": "high exon skipping activity"}, {"measurement": "exon skipping activity (Δ23 skipping) in mdx muscle cells", "setting": "[2]; conjugate 0.125 to 1 μM", "value": "high exon skipping activity"}]}, {"substance": "Pip9d: Pip9 series peptide (SEQ ID Nos 320-328) conjugated to PMODMD (R[Ahx]RR[βAla]RFQILY[βAla]R[βAla]R[βAla]; also: conjugated to PMO (PMODMD))", "values": [{"measurement": "dystrophin expression in the heart", "setting": "[1]", "value": "negligible dystrophin production"}, {"measurement": "exon skipping activity (Δ23 skipping) in mdx muscle cells", "setting": "[2]; [6]", "value": "high exon skipping activity"}]}, {"substance": "Exon-skipping PMO: phosphorodiamidate morpholino oligonucleotide for exon skipping, unconjugated, from cited toxicology studies (GGCCAAACCTCGGCTTACCTGAAAT; all phosphorodiamidate morpholino (PMO))", "values": [{"measurement": "well tolerated dosage", "setting": "[4]", "value": "≤ 960", "unit": "mg/kg"}, {"measurement": "well tolerated dosage", "setting": "[5]", "value": "≤ 320", "unit": "mg/kg"}]}, {"substance": "Pip8d: Pip8 series peptide (SEQ ID NOs:317-319) conjugated to PMODMD (R[Ahx]RR[βAla]RYQFLI[βAla]R[Ahx]R[βAla]; also: conjugated to PMO (PMODMD))", "values": [{"measurement": "exon skipping activity (Δ23 skipping) in mdx muscle cells", "setting": "[2]; [6]", "value": "high exon skipping activity"}]}, {"substance": "Pip9c2: Pip9 series peptide (SEQ ID Nos 320-328) conjugated to PMODMD (R[Ahx]RR[βAla]RRFQILY[βAla]R[Ahx]R[βAla]; also: conjugated to PMO (PMODMD))", "values": [{"measurement": "exon skipping activity (Δ23 skipping) in mdx muscle cells", "setting": "[2]; [6]", "value": "high exon skipping activity"}]}, {"substance": "Pip7d: Pip7 series peptide (SEQ ID NOs:11-16) conjugated to PMODMD (R[Ahx]R[βAla][Ahx]YRFLI[Ahx]R[βAla]R[Ahx]R[βAla]; also: conjugated to PMO (PMODMD), site not given here)", "values": [{"measurement": "exon skipping activity (Δ23 skipping) in mdx muscle cells", "setting": "[2]; conjugate 0.125 to 1 μM", "value": "moderate exon skipping"}]}, {"substance": "Pip9c3: Pip9 series peptide (SEQ ID Nos 320-328) conjugated to PMODMD (R[Ahx]RR[βAla]RFQILYRR[βAla]R[βAla]; also: conjugated to PMO (PMODMD))", "values": [{"measurement": "exon skipping activity (Δ23 skipping) in mdx muscle cells", "setting": "[2]; [6]", "value": "high exon skipping activity"}]}]}
